Laboratory results published in ChEMBL document CHEMBL3507680, “University of Dundee, Gates Library screen for HepG2 cell viability”.

Assay: Human HepG2 cell viability assay in 384 well format
Assay type: toxicity, cell-based
Design: dose 125 nL, time 70.5 hour; concentration not given beside the values
Settings: HepG2 cells, read-out: Inhibition

| Compound | cytotoxicity at 70.5 h |
| --- | --- |
| CC(C)(C)n1ncc2c(=O)n(CC(=O)NCc3ccccc3Cl)cnc21 | -0.0412% |
| CC(C)(C)n1ncc2c(=O)n(CC(=O)NCc3ccccc3)cnc21 | 7.32% |
| CCn1/c(=N/C(=O)CSCC(=O)Nc2nccs2)sc2ccccc21 | -0.443% |
| Nc1nc2c(c(NC(=O)Nc3cccc(Cl)c3)n1)CCCC2 | 13.3% |
| COCCn1/c(=N\C(=O)CN(C)S(C)(=O)=O)sc2cc(C)ccc21 | 14.4% |
| COCCSc1ccc(-n2cccn2)nn1 | 12.3% |
| COCCSc1ccc(-n2ccnc2)nn1 | 26.4% |
| Cc1ccccc1OCC(=O)NCC(c1ccc(N(C)C)cc1)N(C)C (stereo not drawn) | 29.2% |
| Cc1cc(=O)[nH]c(-n2nc(-c3cccs3)cc2N)n1 | 13.9% |
| O=c1n(Cc2cccc(C(F)(F)F)c2)nc2ncccn12 | 24.8% |
| CCN(CC)C(=O)CSc1nc2c(cnn2CCO)c(=O)[nH]1 | 17.2% |
| O=C(Cc1ccc(Cl)s1)Nc1ccc2c(c1)C(=O)NC2=O | -1.77% |
| NC(=O)Cn1c(CO)cnc1SCC(=O)NCc1ccccc1 | 13.6% |
| CN1C(=O)CCc2cc(NC(=O)C3CCCC3)ccc21 | 26.5% |
| O=S(=O)(NCC(c1ccsc1)N1CCCCCC1)c1cccs1 (stereo not drawn) | -3.34% |
| CCOc1ccc(C(=O)Nc2c(C)nc3scc(C)n3c2=O)cc1 | -0.312% |
| CC(=O)Nc1ccc2c(c1)CN(C(=O)c1ccco1)CC2 | 18.4% |
| CCOc1cc(N2CCN(C(=O)c3ccc(OC)cc3)CC2)nc(C)n1 | 5.38% |
| O=C(Nc1ncnc2c1CCC2)c1cccc(F)c1 | 11.5% |
| COc1cc(OC)cc(C(=O)Nc2ncnc3c2CCC3)c1 | 59% |
| Cc1cc(C(=O)N2CCN(c3nc4ccccc4s3)CC2)no1 | 48.3% |

| Compound | cytotoxicity at 70.5 h |
| --- | --- |
| COc1cccc2sc(N3CCN(C(=O)c4cc(C)on4)CC3)nc12 | -2.51% |
| Cc1cnc2c(c1NCc1ccc(F)cc1)c(=O)n(C)c(=O)n2C | 12.7% |
| Cc1cnc2c(c1NCc1cccs1)c(=O)n(C)c(=O)n2C | -16.9% |
| CC(C)NC(=O)Cn1cc(OCc2ccc(F)cc2)c(=O)cc1CO | -4.49% |
| COCCNC(=O)Cn1cc(OCc2ccc(F)cc2)c(=O)cc1CO | -9.69% |
| O=C(CC1CSc2nccc(=O)n21)NCc1ccco1 (stereo not drawn) | -1.36% |
| Cc1cnc2n(c1=O)C(CC(=O)NCc1ccccc1Cl)CS2 (stereo not drawn) | 35% |
| Cc1cnc2n(c1=O)C(CC(=O)NCc1cccnc1)CS2 (stereo not drawn) | -0.178% |
| CCCc1cc(=O)[nH]c2nnc(SCC(N)=O)n12 | 23.3% |
| CCc1nc(C2CCCN(C(=O)c3ccccc3Cl)C2)no1 (stereo not drawn) | -1.75% |
| COc1c(C2CCCN2CC(=O)Nc2cccnc2)c(C)nn1C (stereo not drawn) | -6.38% |
| Cc1nc(C2CCCN2CC(=O)N(C)Cc2ccsc2)no1 (stereo not drawn) | 12.6% |
| Cc1nc(C2CCCN2CC(=O)NCCc2ccc(Cl)cc2)no1 (stereo not drawn) | -2.31% |
| Cc1nc(CN(C)C2CCN(CC3CCCC3)C2)no1 (stereo not drawn) | -1.44% |
| CC(=O)c1cccc(NC(=O)CCn2nc(-c3cccs3)oc2=O)c1 | -18.2% |
| CC(=O)c1cccc(NC(=O)Cn2nc(-c3cccs3)oc2=O)c1 | 10.5% |
| O=C(C1CCN(Cc2nc(-c3ccco3)no2)CC1)N1CCCC1 | -4.18% |
| COc1ncccc1C(=O)NC1CCOc2ccccc21 (stereo not drawn) | -6.62% |
| CCOc1cc(C(=O)NS(=O)(=O)c2cccc(C#N)c2)ccc1OC | -10% |
| CC(C(=O)N1CCOCC1)N1CCN(Cc2nccn2C)CC1 (stereo not drawn) | -2.07% |
| Cc1nccn1C1CCCN(C(=O)c2ccc3c(c2)nc(C)n3C)C1 (stereo not drawn) | -3.08% |

| Compound | cytotoxicity at 70.5 h |
| --- | --- |
| NC(=O)c1ccc(C(=O)N2CCCCC2Cn2cccn2)s1 (stereo not drawn) | 19.1% |
| CCc1nc(C2CCCN2C(=O)CCc2nc(C3CC3)no2)no1 (stereo not drawn) | -1.64% |
| CC(=O)N(Cc1noc(C2CC2)n1)C1CCN(CC(=O)NC2CC2)C1 (stereo not drawn) | -7.63% |
| CC(=O)N(Cc1noc(C2CC2)n1)C1CCN(Cc2cc(C)on2)C1 (stereo not drawn) | -3.51% |
| O=C(c1cc2c(s1)CCCC2)N1CCCC1Cn1cccn1 (stereo not drawn) | -4.37% |
| COCCCN1CCC(N(Cc2noc(C)n2)C(C)=O)C1 (stereo not drawn) | -5.67% |
| c1cnn(CC2CN(Cc3nnc(C4CC4)o3)CCO2)c1 (stereo not drawn) | -4.26% |
| CCc1nc(C2CCCN2C(=O)CCc2nc(C(C)(C)C)no2)no1 (stereo not drawn) | 15.3% |
| Cc1nnc2n1CCN(Cc1csc(-c3ncccn3)n1)C2 | 39.4% |
| CCc1nnc2n1CCN(Cc1csc(Cc3ccccc3)n1)C2 | 15.5% |
| CCOc1ccc(CN2CCN(C(=O)c3cc(C4CC4)[nH]n3)CC2)cc1 | -2.02% |
| CC(C)c1ccc(CN2CCN(C(=O)c3cc(C4CC4)[nH]n3)CC2)cc1 | 44.7% |
| CC(C)c1noc(CN2CCN(C(=O)c3cccnc3O)CC2)n1 | -3.73% |
| O=C(CN1CCN(c2nccs2)CC1)Nc1cccnc1 | -7.83% |
| NC(=O)C1CN(C(=O)Nc2ccc(SC(F)(F)F)cc2)CCO1 (stereo not drawn) | -10.3% |
| Cc1ccccc1NC1CCN(C(=O)CCc2ccco2)CC1 | 1.41% |
| NC(=O)C1CN(C(=O)Nc2ccccc2OCC(F)(F)F)CCO1 (stereo not drawn) | -4.53% |
| c1ccc2oc(N3CCCC3Cn3cncn3)nc2c1 (stereo not drawn) | -3.56% |
| Cc1nc(C)n(CC2CCCN2CCCc2nc3ccccc3o2)n1 (stereo not drawn) | -5.85% |
| NC(=O)COc1ccc(C(=O)N2CCCC(n3ccnc3)C2)cc1 (stereo not drawn) | -3% |
| Cc1ccc(NC2CCN(C(=O)CCc3c(C)noc3C)CC2)nn1 | -11.1% |

| Compound | cytotoxicity at 70.5 h |
| --- | --- |
| Cn1cc(C2CCCN2C(=O)c2cn(-c3ccccc3)nn2)cn1 (stereo not drawn) | -0.276% |
| Cc1ccc(-n2ncc(C(=O)N3CCCC3c3cnn(C)c3)c2C)cc1 (stereo not drawn) | 11.4% |
| NC(=O)c1cccc(C(=O)N2CCCC(n3ccnc3)C2)c1 (stereo not drawn) | -3.58% |
| NC(=O)C1CN(C(=O)Nc2ccccc2Oc2ccccc2Cl)CCO1 (stereo not drawn) | -6.93% |
| Cc1cc(NC(=O)CN2CCN(c3nccs3)C(C)C2)on1 (stereo not drawn) | -6.15% |
| Cc1cc(NC(=O)CN2CCN(c3nccs3)C(C)C2)no1 (stereo not drawn) | -8.11% |
| Cc1n[nH]c(C)c1NC(=O)CN1CCN(c2nccs2)C(C)C1 (stereo not drawn) | -1.01% |
| CC(C)c1noc(CN2CCN(C(=O)c3cccc(F)c3)CC2)n1 | -8.17% |
| COc1cccc(C(=O)N2CCN(Cc3nc(C(C)C)no3)CC2)c1 | -5.91% |
| COc1c(C2CCCN2Cc2nc(-c3ccco3)no2)c(C)nn1C (stereo not drawn) | -2.62% |
| CN1CCOC(CN(C(=O)CN2CCCC2=O)c2nccs2)C1 (stereo not drawn) | 9.36% |
| Cc1ccc(NC2CCN(C(=O)CCc3nccs3)CC2)nn1 | -12.3% |
| c1ccc2oc(CN3CCCCC3Cn3cncn3)nc2c1 (stereo not drawn) | -4.46% |
| NC(=O)c1cccc(OCC(=O)N2CCCC(n3ccnc3)C2)c1 (stereo not drawn) | -11.1% |
| CN(Cc1nnc(C2CC2)n1C)C1CCN(Cc2nccn2C)C1 (stereo not drawn) | 2.78% |
| COc1cccc2cc(CNCc3ccnc(N4CCCCC4)c3)oc12 | 3.87% |
| CCn1c(C)nnc1CN(C)C1CCN(Cc2nnc(C3CC3)o2)C1 (stereo not drawn) | 2.54% |
| CCc1nnc(CN2CCCC2Cn2cc(C)cn2)o1 (stereo not drawn) | 17.8% |
| Cn1cnc(S(=O)(=O)NCCCN2CCCC2)c1Cl | -4.58% |
| O=C(Nc1nc2c(s1)CNCC2)NC1CCCC1 | 18.7% |
